According to patent publication US10806729B2, “Quinoline derivatives for use in the treatment or prevention of viral infection” (ABIVAX, priority 2015, dated 2020):

Tested on: HIV-1 strain YU2
Test: HIV-1 p24 production in infected monocyte derived macrophages (ELISA)
Format: cell-based
Conditions: Human immunodeficiency virus 1, Primary macrophage; primary macrophages infected with Yu-2, at 0.1 μM; read-out: inhibition levels of virus replication (p24)
Description: FIG. 1. Potency of quinoline derivatives to inhibit HIV-1 production in PBMC- and macrophages-infected cells. […] Each point represents 6 donors. B) HIV-1 strain YU2 was used to infect triplicate of monocyte derived-macrophages from different donors in the absence or presence of increasing concentrations of Compound 22. […] Each point represents 8 donors. To generate monocyte derived macrophages (MDMs), monocytes were isolated using CD14 microbeads (catalog no. 130-050-201; Miltenyi) and cultured in X-VIVO10 medium (Lonza) supplemented with GM-CSF 1000 U/ml and M-CSF 100 ng/ml for 6 days. Monocytes were seeded at a cell count of 50,000 cells per well in a 96 well plate. After 6 days medium was replaced with X-VIVO10 w/o Cytokines. After 2 days Macrophages were treated with Compound 22 and/or its N-glucuronide metabolite o/n and next day infected with Yu-2 virus for 6 hrs, washed with PBS and cultured in medium containing the compounds for 12 days. Supernatant for p24 Elisa was collected 2 times a week. Cells were treated with 0.01 μM up to 30 μM and p24 antigen levels were monitored in culture supernatant over a 12 day period. Cell culture supernatant HIV p24 titration was performed by ELISA with Ingen Innotest kit (Ingen Ref 80564) according to the manufacturer's instructions.

FC(F)(F)Oc1ccc(Nc2ccc3cccc(Cl)c3n2)cc1 [Compound 22, 8-chloro-N-(4-(trifluoromethoxy)phenyl)quinolin-2-amine]
inhibition at 0.1 µM: ≤ 90%
